These results are taken from ChEMBL document CHEMBL3351478 (Eur J Med Chem, 2014).

Data set [1] relates to THP-1. Description: (§1) Selectivity index, ratio of CC50 for human THP1 cells to IC50 for Leishmania donovani amastigotes infected in human THP1 cells. In kind it is functional.
The test system of data set [2] is THP-1. As to the kind of experiment: Induction of nitric oxide production in human THP1 cells infected with Leishmania donovani amastigotes at 32.3 uM incubated for 48 hrs by Griess assay relative to untreated control. In kind it is functional, cell-based. On the technique in general: Nitrite, measured by Griess reagent, commonly stands in for NO production.
The test system of data set [3] is THP-1. As to the kind of experiment: Induction of nitric oxide production in human THP1 cells infected with Leishmania donovani amastigotes at 0.93 uM incubated for 48 hrs by Griess assay relative to untreated control. The class given is functional.
Data set [4] deals with Leishmania donovani. As to the kind of experiment: microbe, parasite or virus in culture. The following applies: THP-1, 48 h.
Description: Antileishmanial activity against Leishmania donovani amastigotes infected in human THP1 cells at 10 to 210 uM incubated for 48 hrs by Giemsa staining based optical microscopy
Data set [5] has as its system Leishmania donovani. As to the kind of experiment: Antileishmanial activity against Leishmania donovani AG83 promastigotes assessed as parasite growth inhibition incubated for 92 hrs by MTT assay. In kind it is functional, organism-based. The following applies: AG83, 92 h. Background: Tetrazolium dyes change colour on reduction, which living cells bring about.
The subject of data set [6] is THP-1. As to the kind of experiment: Induction of iNOS2 mRNA expression in human THP1 cells infected with Leishmania donovani amastigotes at 0.93 uM incubated for 5 hrs by RT-PCR method. The class given is functional, cell-based.
Data set [7] can be described thus: as §1. The class given is functional, THP-1.
Data set [8] can be described thus: Cytotoxicity against human THP1 cells incubated for 92 hrs by MTT assay. In kind it is cell-based. Particulars: THP-1 cells.
Data set [9] relates to Leishmania donovani. As to the kind of experiment: Antileishmanial activity against Leishmania donovani amastigotes infected in human THP1 cells assessed as parasite growth inhibition at 100 uM incubated for 48 hrs by Giemsa staining based optical microscopy. The class given is functional. The following applies: THP-1, 48 h, read-out: GI.
The test system of data set [10] is Leishmania donovani. Description: Antileishmanial activity against Leishmania donovani. The class given is functional, organism-based.

Calls of active or inactive are those of the source. The rule behind the calls is not given here. A value given as a limit tells only on which side of the number the result lay.

Turning to sodium antimonygluconate, the Ratio CC50/IC50 in the data set with THP-1 [1] stood at 10.1. Also, in the data set on THP-1 [2], the outcome was inactive.

The term IC50 denotes the concentration needed to halve the response being measured. For orientation: IC90 means the point of the concentration-response curve where the effect stands at 90%. The CC50 is the concentration giving 50% cytotoxicity. A higher CC50 goes with better tolerance by the cells. For `COc1cc(O)c2c(=O)c(OC)c(-c3cc(O)c(O)c(OC)c3)oc2c1`, the “fold change (FC)” value with THP-1 [3] was 8.4. In addition, in the data set on Leishmania donovani [4], the midpoint of inhibition, the IC50, lay at 0.93 µM. In addition, in the data set on Leishmania donovani [5], the concentration for half-maximal inhibition (IC50) was 2.4 µM and the IC90 was determined as 28.1 µM. For the same compound, the result in the data set on THP-1 [6] was Active. Further, the “Ratio CC50/IC50” value in [7] is 133.01. In addition, the CC50 at 92 h in [8] came to 124 µM. In addition, the inhibition of growth at 100 µM in the data set on Leishmania donovani [9] was 100%.

With `COc1cc(-c2oc3cc(O)cc(O)c3c(=O)c2O)cc(OC)c1OC`, the IC50 with Leishmania donovani [10] was above 30 µg/mL.
